Experimental findings from ChEMBL document CHEMBL3588813, “Antifungal Amphiphilic Aminoglycosides” (Medchemcomm, 2014) are described below.

The subject of series [1] is Fusarium graminearum. The series can be described thus: Antimicrobial activity against Fusarium graminearum B4-5A using RPMI medium by microbroth dilution assay. In kind it is functional.
In another series the test system is Escherichia coli. The series can be described thus: Antimicrobial activity against Escherichia coli ATCC 25922 assessed as inhibition of bacterial growth incubated at 35 degC for 12 to 18 hrs. In kind it is functional.
The test system of series [2] is Staphylococcus aureus. The series can be described thus: Antimicrobial activity against Staphylococcus aureus ATCC 25923 assessed as inhibition of bacterial growth incubated at 35 degC for 12 to 18 hrs. In kind it is functional.
Another series deals with Enterococcus faecalis. The series can be described thus: Antimicrobial activity against vancomycin-resistant Enterococcus faecalis ATCC 1299 assessed as inhibition of bacterial growth incubated at 35 degC for 12 to 18 hrs. In kind it is functional.
For series [3], the system named is Staphylococcus aureus. The series can be described thus: Antimicrobial activity against methicillin-resistant Staphylococcus aureus ATCC 33591 assessed as inhibition of bacterial growth incubated at 35 degC for 12 to 18 hrs. In kind it is functional.
In another series the test system is Pseudomonas aeruginosa. The series can be described thus: Antimicrobial activity against Pseudomonas aeruginosa ATCC 27853 assessed as inhibition of bacterial growth incubated at 35 degC for 12 to 18 hrs. In kind it is functional.
For series [4], the system named is Fusarium graminearum. The series can be described thus: Antimicrobial activity against Fusarium graminearum B4-5A using potato dextrose broth as growth medium and diluent. In kind it is functional.
Series [5] can be described thus: Induction of hemolysis in sheep erythrocytes incubated at 37 degC for 60 mins. In kind it is cell-based, Ovis aries, Erythrocyte.
For the next series, the system named is Botrytis cinerea. The series can be described thus: Antimicrobial activity against Botrytis cinerea using potato dextrose broth as growth medium and diluent. In kind it is functional.
The subject of the next series is Rhodotorula mucilaginosa. The series can be described thus: Antimicrobial activity against Rhodotorula piliminae using potato dextrose broth as growth medium and diluent. In kind it is functional.

In brackets after ≈: the same amount, converted by molar mass.

On to `CCCCCCCCSCC[C@H]1O[C@H](O[C@@H]2[C@@H](O)[C@H](O[C@H]3O[C@H](CN)[C@@H](O)[C@H](O)[C@H]3N)[C@@H](N)C[C@H]2N)[C@H](O)[C@@H](N)[C@@H]1O`, for which, in the series on Fusarium graminearum [1], inhibition of growth (MIC) required 15.6 µg/mL (≈ 24.9 µM).
As for `CCCCCCc1cn(C[C@H]2O[C@@H](O[C@@H]3[C@@H](O)[C@H](N)C[C@H](N)[C@H]3O[C@H]3O[C@H](CN)[C@@H](O)[C@H](O)[C@H]3N)[C@H](O)[C@@H]2O[C@H]2O[C@@H](CN)[C@@H](O)[C@H](O)[C@H]2N)nn1`, the values for the MIC with Escherichia coli and in the series with Staphylococcus aureus [2] were 32 µg/mL (≈ 42.7 µM) and 4 µg/mL (≈ 5.33 µM), respectively.
Consider `CCCCCCC(=O)NC[C@H]1O[C@@H](O[C@@H]2[C@@H](O)[C@H](N)C[C@H](N)[C@H]2O[C@H]2O[C@H](CN)[C@@H](O)[C@H](O)[C@H]2N)[C@H](O)[C@@H]1O[C@H]1O[C@@H](CN)[C@@H](O)[C@H](O)[C@H]1N`, for which the MIC in the series on Enterococcus faecalis is at least 250 µg/mL; in the series with Staphylococcus aureus [3], 125 µg/mL (≈ 172 µM); in the series on Escherichia coli it was 16 µg/mL (≈ 22 µM); with Fusarium graminearum [1], 62.5 µg/mL (≈ 86.1 µM); in the series with Staphylococcus aureus [2], 2 µg/mL (≈ 2.76 µM); with Pseudomonas aeruginosa, at least 250 µg/mL.
On to `CCCCO[C@H]1[C@H](N)[C@@H](O)[C@@H](O[C@@H]2[C@@H](O)[C@H](O[C@H]3O[C@H](CN)[C@@H](O)[C@H](O)[C@H]3N)[C@@H](N)C[C@H]2N)O[C@@H]1C`, for which the MIC in the series with Fusarium graminearum [4] and in the series with Fusarium graminearum [1] was above 500 µg/mL each time.
On to `CCCCCCCCCC(=O)NC[C@H]1O[C@@H](O[C@@H]2[C@@H](O)[C@H](N)C[C@H](N)[C@H]2O[C@H]2O[C@H](CN)[C@@H](O)[C@H](O)[C@H]2N)[C@H](O)[C@@H]1O[C@H]1O[C@@H](CN)[C@@H](O)[C@H](O)[C@H]1N`, for which the MIC in the series with Enterococcus faecalis was 64 µg/mL (≈ 83.3 µM); in the series on Staphylococcus aureus [3], 125 µg/mL (≈ 163 µM); with Escherichia coli, 32 µg/mL (≈ 41.7 µM); in the series on Staphylococcus aureus [2], 16 µg/mL (≈ 20.8 µM); in the series with Pseudomonas aeruginosa it was 16 µg/mL (≈ 20.8 µM).
As for `NCC[C@H](O)C(=O)N[C@@H]1C[C@H](N)[C@@H](O[C@H]2O[C@H](CN)[C@@H](O)[C@H](O)[C@H]2O)[C@H](O)[C@H]1O[C@H]1O[C@H](CO)[C@@H](O)[C@H](N)[C@H]1O` [AMIKACIN], the MIC is at least 250 µg/mL in the series with Enterococcus faecalis; 8 µg/mL (≈ 13.7 µM) in the series with Staphylococcus aureus [3]; 1 µg/mL (≈ 1.71 µM) with Escherichia coli; 1 µg/mL (≈ 1.71 µM) in the series on Staphylococcus aureus [2]; 0.5 µg/mL (≈ 0.854 µM) in the series on Pseudomonas aeruginosa.
In the series with Fusarium graminearum [1], `CCCCCCCCCCC(=O)OCC[C@H]1O[C@H](O[C@@H]2[C@@H](O)[C@H](O[C@H]3O[C@H](CN)[C@@H](O)[C@H](O)[C@H]3N)[C@@H](N)C[C@H]2N)[C@H](O)[C@@H](N)[C@@H]1O` came in with an MIC of 62.5 µg/mL (≈ 93.9 µM).
`CCCCCCCCCCCCCCCCCC(=O)NC[C@H]1O[C@@H](O[C@@H]2[C@@H](O)[C@H](N)C[C@H](N)[C@H]2O[C@H]2O[C@H](CN)[C@@H](O)[C@H](O)[C@H]2N)[C@H](O)[C@@H]1O[C@H]1O[C@@H](CN)[C@@H](O)[C@H](O)[C@H]1N`: the MIC stood at 8 µg/mL (≈ 9.09 µM) in the series with Enterococcus faecalis; 2 µg/mL (≈ 2.27 µM) with Staphylococcus aureus [3]; 4 µg/mL (≈ 4.54 µM) in the series with Escherichia coli; 125 µg/mL (≈ 142 µM) with Fusarium graminearum [1]; 2 µg/mL (≈ 2.27 µM) in the series on Staphylococcus aureus [2]; 8 µg/mL (≈ 9.09 µM) in the series on Pseudomonas aeruginosa. The IC90 at 1 h in series [5] was above 1000 µg/mL.
Take `CN[C@H](CC(C)C)C(=O)N[C@H]1C(=O)N[C@@H](CC(N)=O)C(=O)N[C@H]2C(=O)N[C@H]3C(=O)N[C@H](C(=O)N[C@H](C(=O)O)c4cc(O)cc(O)c4-c4cc3ccc4O)[C@H](O)c3ccc(c(Cl)c3)Oc3cc2cc(c3O[C@@H]2O[C@H](CO)[C@@H](O)[C@H](O)[C@H]2O[C@H]2C[C@](C)(N)[C@H](O)[C@H](C)O2)Oc2ccc(cc2Cl)[C@H]1O` [VANCOMYCIN]: the figures for the MIC in the series with Enterococcus faecalis, in the series on Escherichia coli and with Pseudomonas aeruginosa were 250 µg/mL (≈ 173 µM), 125 µg/mL (≈ 86.3 µM) and at least 250 µg/mL, respectively.
As to `CCCCCCCCCCCCCC(=O)NC[C@H]1O[C@@H](O[C@@H]2[C@@H](O)[C@H](N)C[C@H](N)[C@H]2O[C@H]2O[C@H](CN)[C@@H](O)[C@H](O)[C@H]2N)[C@H](O)[C@@H]1O[C@H]1O[C@@H](CN)[C@@H](O)[C@H](O)[C@H]1N`, the MIC in the series on Enterococcus faecalis was 8 µg/mL (≈ 9.71 µM); in the series on Staphylococcus aureus [3], 4 µg/mL (≈ 4.85 µM); in the series on Escherichia coli, 8 µg/mL (≈ 9.71 µM); with Staphylococcus aureus [2], 2 µg/mL (≈ 2.43 µM); with Pseudomonas aeruginosa, 8 µg/mL (≈ 9.71 µM).
As to `CCCCCCCCCCCC(=O)NC[C@H]1O[C@@H](O[C@@H]2[C@@H](O)[C@H](N)C[C@H](N)[C@H]2O[C@H]2O[C@H](CN)[C@@H](O)[C@H](O)[C@H]2N)[C@H](O)[C@@H]1O[C@H]1O[C@@H](CN)[C@@H](O)[C@H](O)[C@H]1N`, the MIC in the series on Enterococcus faecalis worked out at 64 µg/mL (≈ 80.4 µM); in the series with Staphylococcus aureus [3], 16 µg/mL (≈ 20.1 µM); in the series on Escherichia coli it was 16 µg/mL (≈ 20.1 µM); in the series with Staphylococcus aureus [2], 8 µg/mL (≈ 10.1 µM); in the series on Pseudomonas aeruginosa, 16 µg/mL (≈ 20.1 µM).
In the series with Fusarium graminearum [1], `Cc1ccc(S(=O)(=O)OCC[C@H]2O[C@H](O[C@@H]3[C@@H](O)[C@H](O[C@H]4O[C@H](CN)[C@@H](O)[C@H](O)[C@H]4O)[C@@H](N)C[C@H]3N)[C@H](O)[C@@H](N)[C@@H]2O)cc1` displayed an MIC above 500 µg/mL.
In the case of `NC[C@@H]1O[C@H](O[C@H]2[C@@H](O)[C@H](O[C@@H]3[C@@H](O)[C@H](N)C[C@H](N)[C@H]3O[C@H]3O[C@H](CN)[C@@H](O)[C@H](O)[C@H]3N)O[C@@H]2Cn2cc(CNC(=O)c3cc(-c4ccccc4)nc4ccccc34)nn2)[C@H](N)[C@@H](O)[C@@H]1O`, the figures for the MIC in the series on Escherichia coli and in the series on Staphylococcus aureus [2] were 32 µg/mL (≈ 34.6 µM) and 8 µg/mL (≈ 8.64 µM), respectively.
As to `CCCCCCCCCCCCCCCC(=O)NC[C@H]1O[C@@H](O[C@@H]2[C@@H](O)[C@H](N)C[C@H](N)[C@H]2O[C@H]2O[C@H](CN)[C@@H](O)[C@H](O)[C@H]2N)[C@H](O)[C@@H]1O[C@H]1O[C@@H](CN)[C@@H](O)[C@H](O)[C@H]1N`, the MIC came to 4 µg/mL (≈ 4.69 µM) in the series with Enterococcus faecalis; 2 µg/mL (≈ 2.35 µM) with Staphylococcus aureus [3]; 4 µg/mL (≈ 4.69 µM) in the series on Escherichia coli; 125 µg/mL (≈ 147 µM) with Fusarium graminearum [1]; 1 µg/mL (≈ 1.17 µM) with Staphylococcus aureus [2]; 4 µg/mL (≈ 4.69 µM) with Pseudomonas aeruginosa. The molecule further registered an IC90 at 1 h in series [5] above 1000 µg/mL.
Turning to `NC[C@@H]1O[C@H](O[C@H]2[C@@H](O)[C@H](O[C@@H]3[C@@H](O)[C@H](N)C[C@H](N)[C@H]3O[C@H]3O[C@H](CN)[C@@H](O)[C@H](O)[C@H]3N)O[C@@H]2CO)[C@H](N)[C@@H](O)[C@@H]1O` [FRAMYCETIN], the MIC is at least 250 µg/mL in the series on Enterococcus faecalis; 125 µg/mL (≈ 203 µM) in the series on Staphylococcus aureus [3]; 4 µg/mL (≈ 6.51 µM) in the series with Escherichia coli; 62.5 µg/mL (≈ 102 µM) in the series with Fusarium graminearum [1]; 1 µg/mL (≈ 1.63 µM) with Staphylococcus aureus [2]; 64 µg/mL (≈ 104 µM) in the series with Pseudomonas aeruginosa.
As to `NC[C@@H]1O[C@H](O[C@H]2[C@@H](O)[C@H](O[C@@H]3[C@@H](O)[C@H](N)C[C@H](N)[C@H]3O[C@H]3O[C@H](CN)[C@@H](O)[C@H](O)[C@H]3N)O[C@@H]2CNC(=O)c2cc(-c3ccccc3)nc3ccccc23)[C@H](N)[C@@H](O)[C@@H]1O`, the MIC with Escherichia coli was determined as 8 µg/mL (≈ 9.47 µM); in the series on Staphylococcus aureus [2] it was 4 µg/mL (≈ 4.73 µM).
For the molecule `CCCCCCCCCCCCO[C@H]1[C@H](N)[C@@H](O)[C@@H](O[C@@H]2[C@@H](O)[C@H](O[C@H]3O[C@H](CN)[C@@H](O)[C@H](O)[C@H]3N)[C@@H](N)C[C@H]2N)O[C@@H]1C`, the MIC in the series with Fusarium graminearum [4] and in the series with Fusarium graminearum [1] was above 500 µg/mL in each case.
Regarding `CC1(C)CCC(Cc2ccc(Cl)cc2)C1(O)Cn1cncn1` (configuration not stated) [METCONAZOLE], the results for the MIC with Botrytis cinerea, with Fusarium graminearum [4] and against Rhodotorula mucilaginosa were 7.8 µg/mL (≈ 24.4 µM), 3.9 µg/mL (≈ 12.2 µM) and 15.6 µg/mL (≈ 48.8 µM), respectively.
Consider `NC[C@@H]1O[C@@H](O[C@H]2[C@H](O)[C@@H](O[C@H]3O[C@H](CO)[C@@H](O)[C@H](N)[C@H]3O)[C@H](N)C[C@@H]2N)[C@@H](O)[C@H](O)[C@H]1O` [KANAMYCIN A], for which the MIC with Fusarium graminearum [1] is above 500 µg/mL.
Turning to `NC[C@H]1O[C@H](O[C@H]2[C@H](O)[C@@H](O[C@H]3O[C@H](CO)[C@@H](O)[C@H](N)[C@H]3O)[C@H](N)C[C@@H]2N)[C@H](N)[C@@H](O)[C@@H]1O` [BEKANAMYCIN], in the series on Fusarium graminearum [4], the MIC was above 250 µg/mL.
